Tests used:
Caco-2 cell monolayers = assay: Bidirectional transport across Caco-2 cell monolayers; conditions: for lowest effective dosage for inhibiting efflux transport of silybin: silybin 10 μM; for PA-B: human, Caco-2, 180 min; for mean efflux ratio (PB-A/PA-B): silybin alone, no inhibitor
Procedure: Human colorectal adenocarcinoma-2 (Caco-2) cells was obtained from American Type Culture Collection (Manassas, Va.) and frozen at −80° C. For transport study, cells were cultured at 37° C./5% CO2 in Dulbecco's modified Eagle's medium supplemented with 10% fetal bovine serum, 1% nonessential amino acids, and 1% penicillin-streptomycin. […] The culture medium was changed 24 hours after seeding to remove cell debris and dead cells; after which the medium was changed on alternate days. Monolayers were used for transport assays between 21 and 23 days for Caco-2 cells. Prior to transport study, cell monolayers were certified based on internal criteria on transepithelial electrical resistance (TEER) values.
Prior to transport study, cell monolayers were certified based on our internal criteria on transepithelial electrical resistance (TEER) values, and only monolayers that met the acceptance criteria (transepithelial electrical resistance >500 Ω·cm^2 for Caco-2 cells and >200 Ω·cm^2 for MDCK cells) were selected for transport studies.
Bidirectional transport assays in human colorectal adenocarcinoma 2 (Caco-2) and Madin-Darby canine kidney II (MDCK II) was carried out by dosing substrates in assay buffer to either the apical chamber (A-to-B) or the basolateral chamber (B-to-A); cells were then incubated at 37° C. with shaking at 50 rotations per minute (rpm), and 100 μl samples were collected at 30, 60, 90, 120 and 180 minutes from the basolateral chamber to study the drug transport of AP to BL, or apical chamber to study the drug transport of BL to AP. Cell monolayers were then washed twice with ice-cold assay buffer and lysed with methanol on ice for 10 minutes. For inhibition studies, Caco-2 or MDCK II cell monolayers were pre-incubated with an inhibitor in both apical and basolateral chambers for 30 minutes, and bidirectional transport of 10 μM silybin was conducted in the absence (control) or presence of the inhibitor in both chambers. […] For fluorescence intensity detection, samples collected from AP or BL side were immediately detected in 96 well black plate by Microplate ultraviolet-visible spectroscopy (UV/VIS) spectrophotometer (TECAN infinite M200 PRO, Männedorf, Switzerland). In all cases, each determination was performed in triplicate.
The apparent permeability coefficients (Papp) were calculated as Papp=dQ/dt×1/(C“0”A) where dQ/dt (mM/sec) is the rate of permeation of the drug across the cells, C0 (millimolar (mM)) is the donor compartment concentration at time zero and A (cm^2) is the area of the cell monolayer. C0 is obtained from analysis of the dosing solution at the start experiment. Efflux Ratio (ER)=Papp (B to A)/Papp (A to B), while Papp (B−A) is the Papp value measured in the B to A direction, and Papp (A−B) is the Papp value measured in the A to B direction. 1.5 Preparation of Rat Sandwich-Cultured Hepatocytes

[1] = test system: rat sandwich-cultured hepatocytes; assay: in vitro; format: in vitro ADME
Procedure: Sandwich-cultured rat hepatocytes (SCHs) were established according to previously described methods with minor modifications. Primary rat hepatocytes were isolated from male Sprague Dawley® (SD) rats (220-270 g) using a collagenase perfusion as described previously and plated at a density of 7.4×10^5 cells/2 ml/well onto six-well BioCoat plates. Approximately 24 hours later, hepatocytes were overlaid with 2 ml of 0.25 mg/ml BD Matrigel basement membrane matrix in Dulbecco's modified Eagle medium (DMEM) containing 1% volume by volume percentage (v/v) insulin/transferrin/selenium culture supplement, […] dexamethasone, 2 mM L-glutamine, 1% (v/v) minimum essential medium nonessential amino acids, 1% penicillin-streptomycin. Hepatocytes were cultured for 4 days to allow extensive formation of canalicular networks between cells before experimentation and the medium was changed daily.
Sandwich-cultured hepatocytes (SCHs) were pre-incubated in 2 milliliters (ml) of warm Hank's Balanced Salt Solution (HBSS) with or without Ca^2+ at 37° C. for 15 minutes; the tight junctions of the bile canaliculi open temporally after exposure to HBSS without Ca^2+. Subsequently, cells were incubated at 37° C. for 20 minutes with 1.5 ml of standard HBSS containing silybin (10 μM), or MK 571 (50 μM) as a positive control, or baicalein (25, 15.8, 5, 1.58, 0.5, 0.16 μM), or tangeretin (25, 15.8, 5, 1.58, 0.5 μM). After 20 min, cells were washed three times with ice-cold standard HBSS. The cell samples were lysed by sonication in 1 ml of water for 5 seconds with the ultrasonic cell disruption system (SONICS & […], INC., Newtown, Conn., USA). Conjugated silybin and unconjugated (free) silybin were quantified by high-performance liquid chromatography-tandem mass spectrometry (HPLC-MS/MS). Transport function was normalized to the protein content of the hepatocytes which was evaluated by bicinchoninic acid (BCA) protein assay (Pierce Chemical, Rockford, Ill.). The biliary excretion index (BEI; %) and in vitro biliary clearance (Clbiliary; ml/min/kg) were calculated by using B-CLEAR technology (Qualyst, Inc., Research Triangle Park, N.C.) based on the following equations: […]

BCRP = target: T1, BCRP (Homo sapiens, UniProt Q9UNQ0); assay: Transport of silybin across MDCKII-BCRP cells; format: in vitro ADME; parameters: host or cells: MDCKII (Madin-Darby canine kidney II)
T1 sequence (Q9UNQ0 1-655): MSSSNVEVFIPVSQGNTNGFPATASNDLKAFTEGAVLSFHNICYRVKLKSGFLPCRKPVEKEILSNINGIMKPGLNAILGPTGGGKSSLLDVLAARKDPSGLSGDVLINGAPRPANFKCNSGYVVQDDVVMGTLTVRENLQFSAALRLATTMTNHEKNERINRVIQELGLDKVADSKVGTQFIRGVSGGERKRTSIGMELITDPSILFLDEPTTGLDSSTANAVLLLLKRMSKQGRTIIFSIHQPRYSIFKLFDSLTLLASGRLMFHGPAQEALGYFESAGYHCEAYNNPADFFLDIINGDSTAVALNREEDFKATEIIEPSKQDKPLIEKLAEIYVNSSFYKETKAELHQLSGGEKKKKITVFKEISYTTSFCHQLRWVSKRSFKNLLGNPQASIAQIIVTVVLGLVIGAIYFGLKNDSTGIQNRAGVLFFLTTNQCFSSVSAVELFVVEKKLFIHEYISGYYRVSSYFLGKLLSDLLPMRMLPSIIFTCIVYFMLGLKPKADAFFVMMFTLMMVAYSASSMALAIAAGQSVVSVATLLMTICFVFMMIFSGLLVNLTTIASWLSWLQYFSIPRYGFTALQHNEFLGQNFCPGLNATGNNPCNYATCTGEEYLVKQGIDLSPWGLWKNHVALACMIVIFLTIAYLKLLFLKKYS
Procedure: (§1) In all cases, each determination was performed in triplicate.
(§2) 1.5 Preparation of Rat Sandwich-Cultured Hepatocytes

MDCKII-WT cells = format: in vitro ADME, canine; conditions: for mean net efflux ratio: MDCK
Procedure: as §1, §2

| PA-B (Caco-2 cell monolayers) | mean efflux ratio (PB-A/PA-B) (Caco-2 cell monolayers) | net efflux ratio (BCRP) | mean BEI (biliary excretion index), free silybin [1] [%] | intrinsic biliary clearance ([1]; rat, hepatocytes) | mean net efflux ratio (MDCKII-WT cells) | SMILES | lowest effective dosage for inhibiting efflux transport of silybin (Caco-2 cell monolayers) [µM] | also measured |
| --- | --- | --- | --- | --- | --- | --- | --- | --- |
|  |  |  |  |  |  | O=c1cc(-c2ccccc2)oc2cc(O)c(O)c(O)c12 [baicalein] | 0.5 | effect on efflux of silybin (Caco-2 cell monolayers; 5 μM baicalein, silybin at 40 μM): did not affect the efflux of silybin; effect on efflux of silybin (Caco-2 cell monolayers; 5 μM baicalein, silybin concentration below 30 μM): significantly inhibited the efflux of silybin; reduction of biliary excretion of silybin ([1]; baicalein at 25 μM, silybin 10 μM): ~75% |
| 0.47±0.03×10^−6 cm/s | 5.05 | 2.96 | 35±4 | 2.1±0.2 μl/(min·mg protein) | 1.01 | COc1cc([C@H]2Oc3cc([C@H]4Oc5cc(O)cc(O)c5C(=O)[C@@H]4O)ccc3O[C@@H]2CO)ccc1O [silybin A] |  |  |
| 0.45±0.02×10^−6 cm/s | 4.61 | 3.04 | 33±1 | 2.5±0.4 μl/(min·mg protein) | 0.99 | COc1cc([C@@H]2Oc3cc([C@H]4Oc5cc(O)cc(O)c5C(=O)[C@@H]4O)ccc3O[C@H]2CO)ccc1O [silybin B] |  |  |
|  |  |  |  |  |  | COc1cc(C2Oc3cc([C@H]4Oc5cc(O)cc(O)c5C(=O)[C@@H]4O)ccc3OC2CO)ccc1O (stereo partly drawn) [silybin] |  | BCRP substrate status (BCRP; dog, 180 min, 10 µM): is a substrate for both MRP2 and BCRP efflux proteins; permeability of silybin in absence or presence of P-gp, MRP and BCRP efflux inhibitors (MDCKII-WT cells; Caco-2): no significant difference |
|  |  |  |  |  |  | COc1ccc(-c2cc(=O)c3c(OC)c(OC)c(OC)c(OC)c3o2)cc1 [tangeretin] | 0.05 | effect on efflux of silybin (Caco-2 cell monolayers; 0.5 μM tangeretin, silybin 2.5 to 40 μM): Significant inhibitory effects; effect on biliary clearance of silybin ([1]; rat, hepatocytes): inhibited the biliary clearance of silybin |

— patent US10265298B2, “Method of increasing the bioavailability of silybin” (Macau University of Science and Technology, priority 2017, dated 2019)
